Test results as given in ChEMBL document CHEMBL2384940, “Discovery of (R)-(2-fluoro-4-((-4-methoxyphenyl)ethynyl)phenyl) (3-hydroxypiperidin-1-yl)methanone (ML337), an mGlu3 selective and CNS penetrant negative allosteric modulator (NAM)” (J Med Chem, 2013).
Values after ≈ are worked out from the molar mass of the structure shown. Active and inactive are the calls of the source. The calls are words filed in the database; no cut-off is given here.

Key:
[1] = molecular target: Metabotropic glutamate receptor 3 (Rattus norvegicus, UniProt P31422); assay: Negative allosteric modulation of rat mGlu3 receptor transfected in human TREX cells assessed as inhibition of glutamate-induced calcium mobilization after 2.5 mins; assay type: functional, cell-based
[2] = molecular target: Metabotropic glutamate receptor 3 (Rattus norvegicus) (UniProt P31422); assay: Negative allosteric modulation of rat mGlu3 receptor transfected in human TREX cells after 2.5 mins by calcium mobilization assay relative to glutamate; assay type: functional, cell-based; set-up: concentration or dose not given beside the values
[3] = molecular target: Metabotropic glutamate receptor 2 (Rattus norvegicus, UniProt P31421); assay: Negative allosteric modulation of rat mGlu2 receptor transfected in HEK293 cells assessed as inhibition of glutamate-induced calcium mobilization after 2.5 mins; assay type: functional, cell-based
[4] = molecular target: Metabotropic glutamate receptor 3 (Rattus norvegicus) (UniProt P31422); assay: Negative allosteric modulation of rat mGlu3 receptor transfected in human TREX cells assessed as non-competitive decrease in glutamate EC80; assay type: cell-based
[5] = molecular target: Metabotropic glutamate receptor 8 (Homo sapiens) (UniProt O00222); assay: Negative allosteric modulation of mGlu8 receptor (unknown origin) up to 30 uM
[6] = molecular target: T1, Cytochrome P450 1A2 (Homo sapiens, UniProt P05177); assay: Inhibition of CYP1A2 in human liver microsomes using phenacetin as substrate incubated for 15 mins prior to NADPH addition measured after 8 mins by LC/MS/MS analysis; assay type: ADME, Microsome
T1 sequence (P05177 whole entry): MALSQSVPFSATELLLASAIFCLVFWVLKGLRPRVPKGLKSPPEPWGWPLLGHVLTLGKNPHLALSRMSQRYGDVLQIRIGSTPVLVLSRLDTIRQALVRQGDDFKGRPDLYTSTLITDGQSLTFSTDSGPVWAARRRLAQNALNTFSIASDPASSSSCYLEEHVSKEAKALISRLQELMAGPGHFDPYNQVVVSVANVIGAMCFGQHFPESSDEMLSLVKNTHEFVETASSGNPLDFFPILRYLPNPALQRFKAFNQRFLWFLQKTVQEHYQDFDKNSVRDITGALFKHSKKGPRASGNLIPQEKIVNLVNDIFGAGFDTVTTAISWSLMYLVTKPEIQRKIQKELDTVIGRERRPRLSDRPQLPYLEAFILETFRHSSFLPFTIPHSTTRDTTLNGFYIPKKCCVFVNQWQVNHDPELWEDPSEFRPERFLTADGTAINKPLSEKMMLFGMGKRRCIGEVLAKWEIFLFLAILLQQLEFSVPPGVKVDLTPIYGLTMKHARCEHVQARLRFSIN

[7] = molecular target: Metabotropic glutamate receptor 5 (Homo sapiens) (UniProt P41594); assay: Negative allosteric modulation of mGlu5 receptor (unknown origin) up to 30 uM
[8] = system: Plasma; assay: Fraction unbound in rat plasma at 5 uM after 4 hrs by LC/MS/MS analysis; assay type: ADME, cell-free
[9] = molecular target: Sodium-dependent dopamine transporter (Homo sapiens) (UniProt Q01959); assay: Binding affinity to human DAT at 10 uM by radioligand displacement assay relative to control
[10] = molecular target: Metabotropic glutamate receptor 7 (Homo sapiens) (UniProt Q14831); assay: Negative allosteric modulation of mGlu7 receptor (unknown origin) up to 30 uM
[11] = system: Plasma; assay: Plasma protein binding in human at 5 uM after 4 hrs by LC/MS/MS analysis; assay type: ADME, cell-free
[12] = Solubility of the compound in PBS; assay type: physicochemical; conditions: buffer
[13] = molecular target: Cytochrome P450 2C9 (Homo sapiens, UniProt P11712); assay: Inhibition of CYP2C9 in human liver microsomes using diclofenac as substrate incubated for 15 mins prior to NADPH addition measured after 8 mins by LC/MS/MS analysis; assay type: ADME, Microsome
[14] = molecular target: 5-hydroxytryptamine receptor 2B (Homo sapiens) (UniProt P41595); assay: Binding affinity to human 5-HT2B receptor at 10 uM by radioligand displacement assay relative to control
[15] = molecular target: Cytochrome P450 2D6 (Homo sapiens, UniProt P10635); assay: Inhibition of CYP2D6 in human liver microsomes using dextromethorphan as substrate incubated for 15 mins prior to NADPH addition measured after 8 mins by LC/MS/MS analysis; assay type: ADME, Microsome
[16] = molecular target: Metabotropic glutamate receptor 4 (Homo sapiens) (UniProt Q14833); assay: Negative allosteric modulation of mGlu4 receptor (unknown origin) up to 30 uM
[17] = system: Plasma; assay: Plasma protein binding in mouse at 5 uM after 4 hrs by LC/MS/MS analysis; assay type: ADME, cell-free
[18] = system: Plasma; assay: Fraction unbound in human plasma at 5 uM after 4 hrs by LC/MS/MS analysis; assay type: ADME, cell-free
[19] = system: Liver microsomes; assay: Metabolic stability in human liver microsomes at 1 uM; assay type: ADME, Microsome
[20] = system: Plasma; assay: Fraction unbound in mouse plasma at 5 uM after 4 hrs by LC/MS/MS analysis; assay type: ADME, cell-free
[21] = molecular target: Metabotropic glutamate receptor 1 (Homo sapiens) (UniProt Q13255); assay: Negative allosteric modulation of mGlu1 receptor (unknown origin) up to 30 uM
[22] = molecular target: Metabotropic glutamate receptor 6 (Homo sapiens) (UniProt O15303); assay: Negative allosteric modulation of mGlu6 receptor (unknown origin) up to 30 uM
[23] = molecular target: Metabotropic glutamate receptor 3 (Rattus norvegicus) (UniProt P31422); assay: Negative allosteric modulation of rat mGlu3 receptor transfected in human TREX cells assessed as inhibition of glutamate/LY379268-induced calcium mobilization; assay type: functional, cell-based
[24] = species: Homo sapiens; assay: Selectivity ratio of IC50 for human mGlu2 receptor to IC50 for human mGlu3 receptor

Sequence of Metabotropic glutamate receptor 3 (P31422 whole entry): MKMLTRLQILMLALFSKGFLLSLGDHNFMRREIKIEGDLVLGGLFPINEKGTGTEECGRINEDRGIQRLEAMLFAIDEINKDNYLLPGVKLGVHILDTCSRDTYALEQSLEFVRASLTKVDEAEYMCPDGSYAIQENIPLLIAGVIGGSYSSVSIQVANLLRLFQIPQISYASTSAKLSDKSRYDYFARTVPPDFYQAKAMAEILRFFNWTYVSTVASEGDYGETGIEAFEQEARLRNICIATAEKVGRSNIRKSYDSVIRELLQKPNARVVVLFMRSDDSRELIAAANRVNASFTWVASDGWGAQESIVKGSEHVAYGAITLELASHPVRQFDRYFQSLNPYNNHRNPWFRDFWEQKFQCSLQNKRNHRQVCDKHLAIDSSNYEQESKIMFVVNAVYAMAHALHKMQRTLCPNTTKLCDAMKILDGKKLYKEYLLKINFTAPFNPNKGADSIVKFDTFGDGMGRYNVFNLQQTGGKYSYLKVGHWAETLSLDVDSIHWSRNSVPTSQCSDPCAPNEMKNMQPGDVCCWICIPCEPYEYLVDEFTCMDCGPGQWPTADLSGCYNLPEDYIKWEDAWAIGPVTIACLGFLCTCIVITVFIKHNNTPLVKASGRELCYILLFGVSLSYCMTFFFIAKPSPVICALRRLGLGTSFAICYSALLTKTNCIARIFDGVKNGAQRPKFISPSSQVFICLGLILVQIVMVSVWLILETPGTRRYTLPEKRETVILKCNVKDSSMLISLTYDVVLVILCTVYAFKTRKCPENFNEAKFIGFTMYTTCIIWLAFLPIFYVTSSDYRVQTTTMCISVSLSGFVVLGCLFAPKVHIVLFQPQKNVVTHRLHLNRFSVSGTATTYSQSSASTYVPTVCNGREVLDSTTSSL
Sequence of Metabotropic glutamate receptor 3 (Rattus norvegicus) (P31422 23-879 limits assumed): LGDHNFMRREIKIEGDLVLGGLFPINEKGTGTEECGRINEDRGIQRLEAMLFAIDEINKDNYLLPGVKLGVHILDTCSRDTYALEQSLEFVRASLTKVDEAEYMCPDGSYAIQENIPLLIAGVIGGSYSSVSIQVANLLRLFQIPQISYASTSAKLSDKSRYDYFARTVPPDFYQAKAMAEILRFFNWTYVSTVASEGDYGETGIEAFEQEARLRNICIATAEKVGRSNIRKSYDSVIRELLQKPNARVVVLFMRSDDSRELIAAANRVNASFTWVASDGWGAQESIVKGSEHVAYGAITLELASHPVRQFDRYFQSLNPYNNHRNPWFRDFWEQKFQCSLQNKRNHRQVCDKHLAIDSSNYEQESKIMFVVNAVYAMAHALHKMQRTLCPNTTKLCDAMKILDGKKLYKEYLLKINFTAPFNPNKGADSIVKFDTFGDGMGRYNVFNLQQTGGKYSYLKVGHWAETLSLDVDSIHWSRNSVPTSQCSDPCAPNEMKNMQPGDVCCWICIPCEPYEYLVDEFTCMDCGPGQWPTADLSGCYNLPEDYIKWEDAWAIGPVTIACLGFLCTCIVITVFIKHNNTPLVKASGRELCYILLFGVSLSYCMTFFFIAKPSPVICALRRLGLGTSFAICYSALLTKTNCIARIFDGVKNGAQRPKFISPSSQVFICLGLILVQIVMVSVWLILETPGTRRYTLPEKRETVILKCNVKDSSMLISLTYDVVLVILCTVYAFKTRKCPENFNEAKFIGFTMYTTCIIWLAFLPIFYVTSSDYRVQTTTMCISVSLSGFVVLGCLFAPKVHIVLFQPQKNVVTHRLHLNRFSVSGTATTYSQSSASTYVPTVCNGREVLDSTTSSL
Sequence of Metabotropic glutamate receptor 2 (P31421 whole entry): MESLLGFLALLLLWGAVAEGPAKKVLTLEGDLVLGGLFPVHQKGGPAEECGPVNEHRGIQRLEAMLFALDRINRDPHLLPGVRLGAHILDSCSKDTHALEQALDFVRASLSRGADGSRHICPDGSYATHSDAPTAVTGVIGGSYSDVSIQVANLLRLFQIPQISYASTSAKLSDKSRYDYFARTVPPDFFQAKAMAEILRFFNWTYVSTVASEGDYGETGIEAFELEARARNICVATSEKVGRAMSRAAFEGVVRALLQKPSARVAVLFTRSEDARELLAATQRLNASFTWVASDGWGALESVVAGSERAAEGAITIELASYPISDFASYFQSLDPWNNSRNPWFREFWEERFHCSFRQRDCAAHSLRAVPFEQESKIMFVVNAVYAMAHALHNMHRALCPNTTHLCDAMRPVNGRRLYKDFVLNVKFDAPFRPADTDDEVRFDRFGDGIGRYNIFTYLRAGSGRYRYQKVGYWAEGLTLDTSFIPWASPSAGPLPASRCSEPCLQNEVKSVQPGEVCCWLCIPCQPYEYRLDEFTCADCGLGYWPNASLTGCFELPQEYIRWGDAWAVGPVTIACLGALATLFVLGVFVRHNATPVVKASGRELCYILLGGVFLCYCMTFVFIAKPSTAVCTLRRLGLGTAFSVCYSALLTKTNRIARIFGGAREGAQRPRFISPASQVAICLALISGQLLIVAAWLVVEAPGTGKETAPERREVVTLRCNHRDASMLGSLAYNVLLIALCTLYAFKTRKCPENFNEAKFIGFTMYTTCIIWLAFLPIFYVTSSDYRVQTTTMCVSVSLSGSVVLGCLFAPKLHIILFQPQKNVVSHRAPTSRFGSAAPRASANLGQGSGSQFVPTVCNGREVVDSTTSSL
Sequence of 5-hydroxytryptamine receptor 2B (Homo sapiens) (P41595 whole entry): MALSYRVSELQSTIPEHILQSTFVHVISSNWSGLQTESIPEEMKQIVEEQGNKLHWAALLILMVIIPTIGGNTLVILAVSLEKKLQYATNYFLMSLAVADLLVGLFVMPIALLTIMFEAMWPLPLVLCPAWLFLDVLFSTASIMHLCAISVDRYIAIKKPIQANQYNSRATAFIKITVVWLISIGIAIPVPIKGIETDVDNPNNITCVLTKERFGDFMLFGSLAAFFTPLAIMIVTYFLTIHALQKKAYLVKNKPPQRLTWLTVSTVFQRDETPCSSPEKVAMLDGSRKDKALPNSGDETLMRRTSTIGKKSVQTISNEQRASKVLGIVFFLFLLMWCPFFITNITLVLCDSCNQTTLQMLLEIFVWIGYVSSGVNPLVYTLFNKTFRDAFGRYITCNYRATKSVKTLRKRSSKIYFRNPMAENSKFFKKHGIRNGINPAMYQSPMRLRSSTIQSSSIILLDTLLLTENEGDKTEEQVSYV
Sequence of Metabotropic glutamate receptor 1 (Homo sapiens) (Q13255 19-1194 limits assumed): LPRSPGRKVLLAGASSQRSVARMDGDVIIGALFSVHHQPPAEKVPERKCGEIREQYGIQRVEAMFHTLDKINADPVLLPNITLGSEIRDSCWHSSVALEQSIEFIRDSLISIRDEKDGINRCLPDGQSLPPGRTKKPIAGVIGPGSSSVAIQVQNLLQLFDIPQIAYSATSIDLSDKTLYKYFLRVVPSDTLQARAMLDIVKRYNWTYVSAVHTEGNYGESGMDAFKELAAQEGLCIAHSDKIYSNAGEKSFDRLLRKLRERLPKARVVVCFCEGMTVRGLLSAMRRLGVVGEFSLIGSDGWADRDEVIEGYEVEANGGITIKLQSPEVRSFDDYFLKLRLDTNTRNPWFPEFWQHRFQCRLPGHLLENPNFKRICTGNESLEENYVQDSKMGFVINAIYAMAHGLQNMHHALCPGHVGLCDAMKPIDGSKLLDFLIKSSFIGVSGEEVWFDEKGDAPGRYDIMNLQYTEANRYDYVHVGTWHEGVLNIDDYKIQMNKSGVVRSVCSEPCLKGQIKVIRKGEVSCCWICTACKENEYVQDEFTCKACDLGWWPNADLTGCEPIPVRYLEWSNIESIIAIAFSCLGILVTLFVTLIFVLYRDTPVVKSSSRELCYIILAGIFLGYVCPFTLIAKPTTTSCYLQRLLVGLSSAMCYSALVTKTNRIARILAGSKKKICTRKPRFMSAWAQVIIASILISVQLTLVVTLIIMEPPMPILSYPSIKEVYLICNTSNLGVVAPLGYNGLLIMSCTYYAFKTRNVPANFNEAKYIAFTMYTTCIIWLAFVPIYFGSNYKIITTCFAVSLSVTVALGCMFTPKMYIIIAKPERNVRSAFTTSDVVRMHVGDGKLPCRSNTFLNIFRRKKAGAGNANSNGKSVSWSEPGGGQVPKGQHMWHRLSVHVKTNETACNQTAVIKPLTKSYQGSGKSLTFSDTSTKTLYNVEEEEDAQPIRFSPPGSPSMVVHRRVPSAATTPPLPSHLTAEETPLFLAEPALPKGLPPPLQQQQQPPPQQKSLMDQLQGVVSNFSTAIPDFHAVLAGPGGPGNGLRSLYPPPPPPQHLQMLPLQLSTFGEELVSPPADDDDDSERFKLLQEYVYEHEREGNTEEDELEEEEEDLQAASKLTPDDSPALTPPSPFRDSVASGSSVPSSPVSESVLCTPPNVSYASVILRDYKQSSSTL
Sequence of Sodium-dependent dopamine transporter (Homo sapiens) (Q01959 whole entry): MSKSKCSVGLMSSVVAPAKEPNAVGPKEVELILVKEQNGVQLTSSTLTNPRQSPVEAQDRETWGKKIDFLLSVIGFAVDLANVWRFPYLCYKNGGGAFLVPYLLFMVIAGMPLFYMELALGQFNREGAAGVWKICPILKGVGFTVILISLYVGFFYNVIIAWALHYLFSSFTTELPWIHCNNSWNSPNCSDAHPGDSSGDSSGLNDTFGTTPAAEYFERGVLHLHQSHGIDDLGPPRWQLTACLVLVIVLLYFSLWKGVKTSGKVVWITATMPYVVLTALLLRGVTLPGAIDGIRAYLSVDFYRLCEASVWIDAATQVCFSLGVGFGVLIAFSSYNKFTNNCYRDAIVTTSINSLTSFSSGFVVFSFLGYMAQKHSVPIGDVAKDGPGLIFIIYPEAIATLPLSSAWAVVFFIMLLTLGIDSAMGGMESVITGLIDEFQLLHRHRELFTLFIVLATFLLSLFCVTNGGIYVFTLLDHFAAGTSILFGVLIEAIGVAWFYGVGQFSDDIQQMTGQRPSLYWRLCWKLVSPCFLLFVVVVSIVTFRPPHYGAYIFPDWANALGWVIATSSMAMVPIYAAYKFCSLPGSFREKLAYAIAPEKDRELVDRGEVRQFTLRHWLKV

[2H]C([2H])([2H])Oc1ccc(C#Cc2ccc(C(=O)N3CCC[C@@H](O)C3)c(F)c2)cc1
IC50 ([1]; read-out: IC50): 0.45 µM

COc1ccc(C#Cc2ccc(C(=O)N3CCC[C@@H](CO)C3)cc2)c(F)c1F
IC50 ([1]; read-out: IC50): > 10 µM

COc1ccc(C#Cc2ccc(C(=O)N3CCCC(O)C3)cc2)cc1 (racemic)
Activity [2]: 0.4% | IC50 [3]: > 30 µM | IC50 ([1]; read-out: IC50): 0.76 µM

O=C(c1ccc(C#Cc2ccc(Oc3ccccc3)cc2)cc1)N1CCC[C@@H](CO)C1
IC50 ([1]; read-out: IC50): > 10 µM

COc1ccc(C#Cc2ccc(C(=O)N3CCCC(C)(O)C3)cc2)cc1 (stereo unspecified)
Activity [2]: -0.13% | IC50 [3]: > 30 µM | IC50 ([1]; read-out: IC50): 0.711 µM

COc1ccc(C#Cc2ccc(C(=O)N3CCC[C@@H](CO)C3)cc2)cn1
IC50 ([1]; read-out: IC50): > 10 µM

[2H]C([2H])([2H])Oc1ccc(C#Cc2ccc(C(=O)N3CCC[C@@H](O)C3)cc2)cc1
IC50 ([1]; read-out: IC50): 0.31 µM

CSc1ccc(C#Cc2ccc(C(=O)N3CCC[C@@H](CO)C3)cc2)cc1
IC50 ([1]; read-out: IC50): > 10 µM

CCOc1ccc(C#Cc2ccc(C(=O)N3CCC[C@@H](CO)C3)cc2)cc1
IC50 ([1]; read-out: IC50): > 10 µM

O=C(c1ccc(C#Cc2ccc3c(c2)OCO3)cc1)N1CCC[C@@H](CO)C1
IC50 ([1]; read-out: IC50): > 10 µM

COc1ccc(C#Cc2ccc(C(=O)N3CCC[C@@H](O)C3)c(F)c2)cc1
Activity [4]: Active | Activity [5]: inactive | IC50 [6]: > 30 µM | Activity [2]: 1.9% | IC50 [3]: > 30 µM | Activity [7]: inactive | Fu [8]: 0.005 | inhibition [9]: 71% | Activity [10]: inactive | PPB [11]: 97% | solubility [12]: 7.8 µM (≈ 2.76 µg/mL) | IC50 [13]: > 30 µM | inhibition [14]: 74% | IC50 [15]: > 30 µM | Activity [16]: inactive | PPB [17]: 97% | Fu [18]: 0.03 | Stability [19]: Unstable | IC50 ([1]; read-out: IC50): 0.593 µM | IC50 ([1]; read-out: pIC50 (converted)): 0.603 µM | Fu [20]: 0.027 | Activity [21]: inactive | Activity [22]: inactive | Activity [23]: Active

O=C(c1ccc(C#Cc2ccc(O)cc2)cc1)N1CCC[C@@H](CO)C1
IC50 ([1]; read-out: IC50): > 10 µM

CC(C)Oc1ccc(C#Cc2ccc(C(=O)N3CCC[C@@H](CO)C3)cc2)cc1
IC50 ([1]; read-out: IC50): > 10 µM

COc1ccc(C#Cc2ccc(C(=O)N3CCC[C@@H](CO)C3)cc2)cc1F
IC50 ([1]; read-out: IC50): > 10 µM

COc1ccc(C#Cc2ccc(C(=O)N3CCCC(OC)C3)cc2)cc1 (stereo unspecified)
Activity [2]: 0% | IC50 [3]: > 30 µM | IC50 ([1]; read-out: pIC50 (converted)): 5.5 µM

COc1ccc(C#Cc2ccc(C(=O)N3CCC[C@@H](O)C3)cc2)cc1
Activity [2]: 2% | IC50 [3]: > 30 µM | IC50 ([1]; read-out: IC50): 0.65 µM

COc1ccc(C#Cc2ccc(C(=O)N3CCC[C@H](O)C3)cc2)cc1
Activity [2]: 1.7% | IC50 [3]: > 30 µM | IC50 ([1]; read-out: IC50): 1.1 µM

COc1ccc(C#Cc2ccc(C(=O)N3CCC[C@@H](CO)C3)cc2)c(F)c1
IC50 ([1]; read-out: IC50): > 10 µM

Clc1ccc(CN[C@H]2CCN(c3ncc(Br)cn3)C2)c(Cl)c1
Ratio IC50 [24]: 4

COc1ccc(C#Cc2ccc(C(=O)N3CC[C@H](O)C3)cc2)cc1
IC50 [3]: > 30 µM | IC50 ([1]; read-out: pIC50 (converted)): 27.5 µM

COc1ccc(C#Cc2ccc(C(=O)N3CCC[C@@H](O)C3)cc2F)cc1
Activity [2]: 1.64% | IC50 [3]: > 30 µM | IC50 ([1]; read-out: IC50): 0.456 µM

O=C(c1ccc(C#Cc2ccc3c(c2)OCCO3)cc1)N1CCC[C@@H](CO)C1
IC50 ([1]; read-out: IC50): > 10 µM

COc1ccc(-c2nnc(-c3ccc(C(=O)N4CCC[C@@H](CO)C4)cc3)o2)cc1
IC50 ([1]; read-out: IC50): > 10 µM

COc1ccc(C#Cc2ccc(C(=O)N3CCC(CO)C3)cc2)cc1 (stereo unspecified)
Activity [2]: 0% | IC50 [3]: > 30 µM | IC50 ([1]; read-out: pIC50 (converted)): 7.59 µM

O=C(c1ccc(C#Cc2ccc(OC(F)(F)F)cc2)cc1)N1CCC[C@@H](CO)C1
IC50 ([1]; read-out: IC50): > 10 µM

COc1ccc(C#Cc2ccc(C(=O)N3CC4CCC(O)C4C3)cc2)cc1 (stereo unspecified)
Activity [2]: 1.7% | IC50 [3]: > 30 µM | IC50 ([1]; read-out: pIC50 (converted)): 5.5 µM

COc1ccc(C#Cc2ccc(C(=O)N3CCC[C@@H](CO)C3)cc2)cc1
IC50 ([1]; read-out: IC50): > 10 µM

COc1ccc(C#Cc2ccc(C(=O)N3CC[C@@H](O)C3)cc2)cc1
Activity [2]: 0% | IC50 [3]: > 30 µM | IC50 ([1]; read-out: pIC50 (converted)): 10.2 µM

COc1ccc(C#Cc2ccc(C(=O)N3CC4CCC(=O)C4C3)cc2)cc1 (stereo unspecified)
Activity [2]: 1.6% | IC50 [3]: > 30 µM | IC50 ([1]; read-out: pIC50 (converted)): 2.75 µM

COc1ccc(C#Cc2ccc(C(=O)NC(C)CO)cc2)cc1 (stereo unspecified)
Activity [2]: 1.6% | IC50 [3]: > 30 µM | IC50 ([1]; read-out: pIC50 (converted)): 7.59 µM
